Source: patent US20200031784A1, “OZANIMOD ADDITION SALT CRYSTAL, PREPARATION METHOD, PHARMACEUTICAL COMPOSITION, AND USES” (Solipharma LLC, priority 2017, published 2020)
Counter-ions that a name gives are not always drawn. Like-named read-outs stand apart in the source and are kept apart here.

Columns and labels:
Type in all cases: physicochemical
[1] = Phase stability in aqueous system, slurry for 5 days (Comparative Example 2); conditions: slurry 5 days
Method: The phase stability of crystalline forms of ozanimod salts of Examples 1 to 124 and ozanimod hydrochloride crystalline form of Preparation Example 2 were tested in aqueous system.

[2] = Isothermal adsorption curve (dynamic vapor sorption), weight change; conditions: in the range of 0% to 50%
Method: Dynamic vapor sorption data and isothermal sorption data are collected on TA Instruments Q5000 TGA. A sample of 1 to 10 mg is usually placed in a platinum pan; and the TA software records the change in weight of the sample during relative humidity from 0% to 80% to 0%. Depending on the specifics of the sample, different adsorption and desorption steps are also applied to the sample.

[3] = Water solubility of crystalline ozanimod salt forms (Comparative Example 1)
Method: The water solubility of crystalline forms of ozanimod salts of Examples 1 to 124 and ozanimod hydrochloride of Preparation Example 2 were tested.

Row | Slurry for 5 days in ethanol/water (1:1) (solid state after slurry) [1] | Slurry for 5 days in water (solid state after slurry) [1] | weight change according to the isothermal adsorption curve [2] | 25° C. water solubility ([3]; 25° C.) | 37° C. water solubility ([3]; 37° C.) | solubility ([3]; 25° C., read-out: 25° C. water solubility) | solubility ([3]; 37° C., read-out: 37° C. water solubility) | Structure (SMILES)
1 | Crystalline | Crystalline |  |  |  |  |  | CC(C)Oc1ccc(-c2nc(-c3cccc4c3CC[C@@H]4NCCO)no2)cc1C#N.O=C(O)C(O)C(O)C(=O)O [Ozanimod L-tartrate Form 1]
2 | Crystalline | Crystalline | 0.05% |  |  |  |  | CC(C)Oc1ccc(-c2nc(-c3cccc4c3CC[C@@H]4NCCO)no2)cc1C#N.O=S(=O)(O)c1ccccc1 [Ozanimod besylate Form 1]
3 | Crystalline | Crystalline |  |  |  |  |  | CC(C)Oc1ccc(-c2nc(-c3cccc4c3CCC4NCCO)no2)cc1C#N.O=C(O)CC(O)(CC(=O)O)C(=O)O (stereo not drawn) [Ozanimod citrate Form 1]
4 | Crystalline | Crystalline |  | 2.54 mg/mL | 7.71 mg/mL |  |  | CC(C)Oc1ccc(-c2nc(-c3cccc4c3CC[C@@H]4NCCO)no2)cc1C#N.O=P(O)(O)O [Ozanimod dihydrogen phosphate Form 1]
5 | Crystalline | Crystalline |  | 2.34 mg/mL | 4.55 mg/mL |  |  | CC(C)Oc1ccc(-c2nc(-c3cccc4c3CC[C@@H]4NCCO)no2)cc1C#N.O=C(O)/C=C/C(=O)O [Ozanimod fumarate Form 1]
6 | Crystalline | Crystalline |  | 10.55 mg/mL | 22.62 mg/mL |  |  | CC(C)Oc1ccc(-c2nc(-c3cccc4c3CC[C@@H]4NCCO)no2)cc1C#N.CC(C)Oc1ccc(-c2nc(-c3cccc4c3CC[C@@H]4NCCO)no2)cc1C#N.O=C(O)C[C@H](O)C(=O)O [Ozanimod hemi-L-malate Form 1]
7 | Crystalline | Crystalline |  |  |  |  |  | CC(C)Oc1ccc(-c2nc(-c3cccc4c3CCC4NCCO)no2)cc1C#N.CC(C)Oc1ccc(-c2nc(-c3cccc4c3CCC4NCCO)no2)cc1C#N.O=C(O)C=CC(=O)O (stereo not drawn) [Ozanimod hemi-fumarate Form 1]
8 | Crystalline | Crystalline |  |  |  |  |  | CC(C)Oc1ccc(-c2nc(-c3cccc4c3CCC4NCCO)no2)cc1C#N.CC(C)Oc1ccc(-c2nc(-c3cccc4c3CCC4NCCO)no2)cc1C#N.O=S(=O)(O)O (stereo not drawn) [Ozanimod hemisulfate Form 1]
9 | Crystalline | Crystalline |  | 0.78 mg/mL | 3.49 mg/mL |  |  | Br.CC(C)Oc1ccc(-c2nc(-c3cccc4c3CC[C@@H]4NCCO)no2)cc1C#N [Ozanimod hydrobromide Form 1]
10 | Weak crystallinity | Amorphous | 0.14% |  |  | 0.61 mg/mL | 2.45 mg/mL | CC(C)Oc1ccc(-c2nc(-c3cccc4c3CC[C@@H]4NCCO)no2)cc1C#N [Ozanimod hydrochloride form, reference compound]
11 | Crystalline | Crystalline |  |  |  |  |  | CC(C)Oc1ccc(-c2nc(-c3cccc4c3CCC4NCCO)no2)cc1C#N.O=S(=O)(O)O (stereo not drawn) [Ozanimod hydrosulfate Form 1]
12 | Crystalline | Crystalline |  | 1.20 mg/mL | 5.29 mg/mL |  |  | CC(C)Oc1ccc(-c2nc(-c3cccc4c3CC[C@@H]4NCCO)no2)cc1C#N.O=C(O)/C=C\C(=O)O [Ozanimod maleate Form 1]
13 | Crystalline | Crystalline |  | 17.60 mg/mL | 53.82 mg/mL |  |  | CC(C)Oc1ccc(-c2nc(-c3cccc4c3CC[C@@H]4NCCO)no2)cc1C#N.CS(=O)(=O)O [Ozanimod mesylate Form 1]
